Source: patent US4151273A, “Increasing the absorption rate of insoluble drugs” (priority 1978, dated 1979)
Converted amounts (≈) assume the structure as drawn. “Also recorded” adds a separate entry of the source.

Key:
Assay type in all cases: physicochemical
[1] = Dissolution rate study of griseofulvin compositions (saturation dissolution apparatus); conditions: for 20% dissolution time: 5 mg gris in 500 ml water at 25°, 100 r.p.m.
Description: A recycling and automatic recording system was used for all dissolution rate studies. The dissolution rate of gris in different physical forms were run in 500 ml. distilled water in a 600 ml. beaker at room temperature.
Unless otherwise specified, samples of 80 to 200 mesh powder were transferred directly into the dissolution medium and stirred with a stainless steel paddle. The paddle, 5.5 × 2.7 cm., was placed at the center of a 500 ml. dissolution medium and rotated at a rate of 100 r.p.m. The solution was pumped by a peristatic pump (Multi-speed Transmission, model No. 6000-000, available from the Harvard Apparatus Co., Dover, Mass.) at a rate of 80 to 100 ml./min. through a glass filter stick to a 1-cm. flow cell and then back to the dissolution apparatus. The absorbance of the solution is monitored by a recording Beckman DB spectrophotometer at either the miximum peak of gris, 292 mu., or minimum absorbance, 272 mu. depending upon the concentration of gris. In the system of gris-PEG 20,000, 324 mu. was used because of possible interference of absorption by the polymer at 272 mu. The volume of the solution in the tubing of the recycling system is about 10 ml. At the flow rate used, the monitored absorbance will reach 90% of the equilibrium valve in 15 sec. Therefore, the lag time in the measurement of dissolution rate is essentially negligible. In the study of the dissolution rate at room temperature, the water is preadjusted to 25° C. The ambient temperature of the room ranged less than 2° from this temperature.
Samples of micronized gris and of gris of 100 to 200 mesh particle size distribution were also run. […] All samples were run in duplicate.
^a Five milligrams gris in 500 ml. of water at 25°.
^b Dissolution times taken from recorded absorbance readings.

[2] = Solubility of griseofulvin in water; conditions: 25° C., read-out: solubility of gris
[3] = Stability of gris on preparing the solid solutions (melting point, spectra, thin layer chromatography); conditions: following solvent or direct fusion methods
Description: A number of tests were made to establish that the gris was not decomposed in any manner following either the solvent or the direct fusion methods of preparing the solid solutions. The melting point, the spectra of the ultra-violet, the infrared and fluorescence are all identical to those of the gris used as a starting material.

[4] = Dissolution studies involving other materials (time for 20% dissolution); conditions: in water
Description: Dissolution studies were similarly made involving other materials.

SMILES	20% dissolution time [1]	time to 20% dissolution [4]	also measured
COC1=CC(=O)C[C@@H](C)[C@]12Oc1c(Cl)c(OC)cc(OC)c1C2=O [100-200 Mesh pure gris, griseofulvin]	60.0 min		
COC1=CC(=O)C[C@@H](C)[C@]12Oc1c(Cl)c(OC)cc(OC)c1C2=O [Micronized gris (wetted), griseofulvin]	2.0 min		
COC1=CC(=O)C[C@@H](C)[C@]12Oc1c(Cl)c(OC)cc(OC)c1C2=O [Micronizied gris (nonwetted), griseofulvin]	25.0 min		dissolution rate (in words) ([1]; compared with other gris forms, wetting with 2 ml of 0.2% polysorbate (Tween 20), micronized gris): markedly slower than that of the same powder when wetted first; also recorded: almost the same dissolution rate as the 100-200 mish gris
COC1=CC(=O)C[C@@H](C)[C@]12Oc1c(Cl)c(OC)cc(OC)c1C2=O [gris, griseofulvin]			solubility [2]: 10 µg/mL (≈ 28.3 µM); decomposition of gris (in words) [3]: no additional spots were detected
CC(=O)OCC(=O)[C@@]1(O)CC[C@H]2[C@@H]3CCC4=CC(=O)CC[C@]4(C)[C@H]3[C@@H](O)C[C@@]21C [hydrocortisone acetate]		more than 20 minutes	
C[C@]12CCC(=O)C=C1CC[C@@H]1[C@@H]2CC[C@@]2(C)[C@H]1CC[C@]2(C)O [methyltestosterone]		2 min	
C[C@H]1O[C@@H](O[C@H]2[C@@H](O)C[C@H](O[C@H]3[C@@H](O)C[C@H](O[C@H]4CC[C@@]5(C)[C@H](CC[C@@H]6[C@@H]5CC[C@]5(C)[C@@H](C7=CC(=O)OC7)CC[C@]65O)C4)O[C@@H]3C)O[C@@H]2C)C[C@H](O)[C@@H]1O [microcrystalline digitoxin, digitoxin]		about 15 minutes	
CC(=O)OCC(=O)[C@@]1(O)CC[C@H]2[C@@H]3CCC4=CC(=O)C=C[C@]4(C)[C@H]3[C@@H](O)C[C@@]21C [prednisolone acetate]		8 min	
